Columns and labels:
[1] = Photochemical and thermal stability; assay type: physicochemical
Solubility = assay type: physicochemical

| photochemical and thermal stability [1] | solubility in aqueous solution (Solubility) | Compound |
| --- | --- | --- |
| thermally and photochemically stable | very high solubility | O=S(=O)([O-])c1ccc2[nH]c([S-])nc2c1.O=S(=O)([O-])c1ccc2[nH]c([S-])nc2c1.[Ag+].[Na+].[Na+].[Na+] [Na^+3[Ag^+(X^2−)2]^3−] |
|  | very high solubility | O=S(=O)([O-])CCC[S-].O=S(=O)([O-])CCC[S-].[Ag+].[Na+].[Na+].[Na+] [Na^+3[Ag^+(MPS^2−)2]^3−] |
| thermally and photochemically stable | very high solubility | O=C([O-])c1ccccc1[S-].O=C([O-])c1ccccc1[S-].[Ag+].[Na+].[Na+].[Na+] [Na^+3[Ag^+(TS^2−)2]^3−] |
